# Laboratory results reported in patent publication US10093623B2, “Cyclic amides as MetAP-2 inhibitors” (MERCK PATENT GmbH, priority 2012, dated 2018).
# Molecular target: MetAP-2 (Homo sapiens, UniProt P50579)
# Assay: MetAP-2 activity measurement (coupled enzymatic reactions, Met-Arg-Ser substrate, dianisidine detection at 450 nm)
# Type: biochemical
# Details: Inhibition of MetAP-2; read-out: IC50 enzyme
# Method in brief: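 Coupled continuous assay with Met-Arg-Ser tripeptide substrate: released methionine oxidised by L-amino acid oxidase to give H2O2, which peroxidase uses to oxidise dianisidine, followed at 450 nm. Activity taken as slope of absorbance versus time over the visually linear region; dianisidine extinction coefficient converts to mol Met per time.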
# Chain of MetAP-2 (P50579 whole entry, species assumed): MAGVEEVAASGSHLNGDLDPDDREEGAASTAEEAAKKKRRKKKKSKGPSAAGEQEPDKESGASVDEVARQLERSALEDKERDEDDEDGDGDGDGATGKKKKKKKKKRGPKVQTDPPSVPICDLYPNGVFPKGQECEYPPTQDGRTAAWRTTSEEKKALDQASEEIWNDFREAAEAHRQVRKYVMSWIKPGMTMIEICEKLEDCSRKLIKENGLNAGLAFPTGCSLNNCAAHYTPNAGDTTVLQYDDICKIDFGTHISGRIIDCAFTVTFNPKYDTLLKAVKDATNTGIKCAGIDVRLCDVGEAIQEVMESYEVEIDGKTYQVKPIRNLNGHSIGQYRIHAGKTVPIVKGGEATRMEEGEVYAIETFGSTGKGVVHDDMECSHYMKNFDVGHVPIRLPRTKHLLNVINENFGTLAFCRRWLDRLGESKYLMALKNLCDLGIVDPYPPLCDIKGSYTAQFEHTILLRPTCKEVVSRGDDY
row,IC50 [µM],SMILES
1,0.01 to 1,"CNS(=O)(=O)c1ccc(N2CC[C@](O)(C(=O)NCc3cc(F)cc(Cl)c3)C2=O)cc1 [B141, N-(3-Chloro-5-fluorobenzyl)-(S)-3-hydroxy-1-(4-methylsulfamoyl-phenyl)-2-oxopyrrolidine-3-carboxamide]"
2,0.01 to 1,"CC(=O)Nc1ccc(N2CCC(O)(C(=O)NCCc3cc(F)cc(F)c3)C2=O)cn1 (stereo not drawn) [A188, N-[2-(3,5-Difluorophenyl)ethyl]-1-(6-acetylaminopyridin-3-yl)-3-hydroxy-2-oxopyrrolidine-3-carboxamide]"
3,> 10,"O=C1CCc2cc(NC(=O)C3(O)CCN(c4ccc5c(c4)CCC(=O)N5)C3=O)ccc2N1 (stereo not drawn) [B50, N-(2-Oxo-1,2,3,4-tetrahydro-quinolin-6-yl)-3-hydroxy-2-oxo-1-(2-oxo-1,2,3,4-tetrahydro-quinolin-6-yl)pyrrolidine-3-carboxamide]"
4,0.01 to 1,"O=C(NCc1cc(F)cc(Cl)c1)C1(O)CCN(c2ccc3cc[nH]c3c2)C1=O (stereo not drawn) [A68, N-(3-Chloro-5-fluorobenzyl)-3-hydroxy-1-(1H-indol-6-yl)-2-oxo-pyrrolidine-3-carboxamide]"
5,0.01 to 1,"CC(=O)Nc1ccc(N2CCC(O)(C(=O)NCCc3ccccc3F)C2=O)cn1 (stereo not drawn) [A175, N-[2-(2-Fluorophenyl)ethyl]-1-(6-acetylaminopyridin-3-yl)-3-hydroxy-2-oxopyrrolidine-3-carboxamide]"
6,> 10,"O=C(N1CCN(CCO)CC1)[C@@]1(O)CCN(c2ccccc2)C1=O [A57, (S)-3-Hydroxy-3-[4-(2-hydroxy-ethyl)piperazine-1-carbonyl]-1-phenylpyrrolidin-2-one]"
7,1 to 10,"COc1ccc(Cl)cc1N1CCC(O)(C(=O)NCc2cc(F)cc(Cl)c2)C1=O (stereo not drawn) [B13, 1-(5-Chloro-2-methoxyphenyl)-3-hydroxy-2-oxopyrrolidine-3-carboxylic acid 3-chloro-5-fluorobenzylamide]"
8,0.01 to 1,"O=C(NCc1cc(F)cc(Cl)c1)[C@@]1(O)CCN(c2cc(C(F)(F)F)ccn2)C1=O [B52, N-(3-Chloro-5-fluorobenzyl)-(S)-3-hydroxy-2-oxo-1-(4-trifluoromethylpyridin-2-yl)-pyrrolidine-3-carboxamide]"
9,0.01 to 1,"O=C(NCCc1cc(F)cc(F)c1)C1(O)CCN(c2ccc3[nH]ccc3c2)C1=O (stereo not drawn) [A207, N-[2-(3,5-Difluorophenyl)ethyl]-3-hydroxy-1-(1H-indol-5-yl)-2-oxopyrrolidine-3-carboxamide]"
10,1 to 10,"N#Cc1cncc(N2CC[C@](O)(C(=O)NCc3cc(F)cc(Cl)c3)C2=O)c1 [A107, N-(3-Chloro-5-fluorobenzyl)-(S)-1-(5-cyanopyridin-3-yl)-3-hydroxy-2-oxopyrrolidine-3-carboxamide]"
11,0.01 to 1,"O=C(NCc1cccc(F)c1)[C@@]1(O)CCCN(Cc2cccc(F)c2F)C1=O [A254, N-(3-Fluorobenzyl)-(S)-1-(2,3-difluorobenzyl)-3-hydroxy-2-oxo-piperidine-3-carboxamide]"
12,1 to 10,"O=C(CN1CCC(O)(C(=O)NCc2cc(F)cc(Cl)c2)C1=O)NCCO (stereo not drawn) [A282, N-(3-Chloro-5-fluorobenzyl)-3-hydroxy-1-[(2-hydroxy-ethylcarbamoyl)methyl]-2-oxo-pyrrolidine-3-carboxamide]"
13,> 10,"O=C(NCCCn1ccnc1)[C@@]1(O)CCN(c2ccccc2)C1=O [A58, N-(3-Imidazol-1-ylpropyl)-(S)-3-hydroxy-2-oxo-1-phenylpyrrolidine-3-carboxamide]"
14,0.01 to 1,"O=C1CCc2cc(N3CCC(O)(C(=O)NCc4cccc(F)c4Cl)C3=O)ccc2N1 (stereo not drawn) [A196, N-(2-Chloro-3-fluorobenzyl)-3-hydroxy-2-oxo-1-(2-oxo-1,2,3,4-tetrahydroquinolin-6-yl)-pyrrolidine-3-carboxamide]"
15,0.01 to 1,"O=C(NCCc1cccc(F)c1)C1(O)CCN(c2ccc3[nH]ccc3c2)C1=O (stereo not drawn) [A212, N-[2-(3-Fluorophenyl)ethyl]-3-hydroxy-1-(1H-indol-5-yl)-2-oxo-pyrrolidine-3-carboxamide]"
16,0.01 to 1,"NS(=O)(=O)c1cccc(N2CCC(O)(C(=O)NCc3cc(F)cc(Cl)c3)C2=O)c1 (stereo not drawn) [B107, N-(3-Chloro-5-fluorobenzyl)-3-hydroxy-2-oxo-1-(3-sulfamoyl-phenyl)pyrrolidine-3-carboxamide]"
17,0.01 to 1,"O=C(NCCc1ccccc1F)C1(O)CCN(c2ccc3[nH]ccc3c2)C1=O (stereo not drawn) [A210, N-[2-(2-Fluorophenyl)ethyl]-3-hydroxy-1-(1H-indol-5-yl)-2-oxo-pyrrolidine-3-carboxamide]"
18,0.01 to 1,"NCCOCCNC(=O)c1cc2cc(N3CC[C@](O)(C(=O)NCc4cc(F)cc(Cl)c4)C3=O)ccc2[nH]1 [B113, N-[2-(2-Aminoethoxy)ethyl]-5-[(S)-3-(3-chloro-5-fluorobenzylcarbamoyl)-3-hydroxy-2-oxopyrrolidin-1-yl]-1H-indole-2-carboxamide]"
19,0.01 to 1,"O=C(NCc1cc(F)cc(Cl)c1)[C@@]1(O)CCN(c2cnc3[nH]c(C(F)(F)F)cc3c2)C1=O [B83, N-(3-Chloro-5-fluorobenzyl)-(S)-3-hydroxy-2-oxo-1-(2-trifluoromethyl-1H-pyrrolo-[2,3-b]pyridin-5-yl)pyrrolidine-3-carboxamide]"
20,0.01 to 1,"NS(=O)(=O)c1ccc(N2CC[C@](O)(C(=O)NCc3cc(F)cc(Cl)c3)C2=O)cc1 [B101, N-(3-Chloro-5-fluorobenzyl)-(S)-3-hydroxy-2-oxo-1-(4-sulfamoyl-phenyl)pyrrolidine-3-carboxamide]"

row,IC50 [µM],SMILES
1,0.01 to 1,"O=C(NC1CCC1)c1cccc(N2CCC(O)(C(=O)NCc3cc(F)cc(Cl)c3)C2=O)c1 (stereo not drawn) [A76, N-(3-Chloro-5-fluorobenzyl)-1-(3-cyclobutylcarbamoylphenyl)-3-hydroxy-2-oxopyrrolidine-3-carboxamide]"
2,0.01 to 1,O=C(NCCc1cc(F)cc(Cl)c1)C1(O)CCN(c2ccc3[nH]ncc3c2)C1=O (stereo not drawn) [A168]
3,> 10,"O=C(NCCO)c1cccc(N2CC[C@@](O)(C(=O)NCc3cc(F)cc(Cl)c3)C2=O)c1 [A91, N-(3-Chloro-5-fluorobenzyl)-(R)-3-hydroxy-1-[3-(2-hydroxy-ethylcarbamoyl)phenyl]-2-oxo-pyrrolidine-3-carboxamide]"
4,> 10,"OC1(CNCc2cc(F)cc(Cl)c2)CCCN(Cc2ccccc2)C1 (stereo not drawn) [B19, 1-Benzyl-3-[(3-chloro-5-fluorobenzylamino)methyl]-piperidin-3-ol]"
5,0.01 to 1,"NC(=O)c1cccc(N2CCC(O)(C(=O)NCCc3cccc(F)c3)C2=O)c1 (stereo not drawn) [A177, N-[2-(3-Fluorophenyl)ethyl]-1-(3-carbamoylphenyl)-3-hydroxy-2-oxopyrrolidine-3-carboxamide]"
6,0.01 to 1,"O=C1COc2cc(N3CC[C@](O)(C(=O)NCc4cc(F)cc(Cl)c4)C3=O)ccc2N1 [A197, N-(3-Chloro-5-fluorobenzyl)-(S)-3-hydroxy-2-oxo-1-(3-oxo-3,4-dihydro-2H-benzo-1,4-oxazin-7-yl)pyrrolidine-3-carboxamide]"
7,> 10,"O=C(NCc1cc(F)cc(Cl)c1)[C@]1(O)CCN(Cc2ccccc2)C1=O [A141, N-(3-Chloro-5-fluorobenzyl)-(R)-1-benzyl-3-hydroxy-2-oxo-pyrrolidine-3-carboxamide]"
8,1 to 10,"NC(=O)CN1CCC(O)(C(=O)NCc2cc(F)cc(Cl)c2)C1=O (stereo not drawn) [A248, N-(3-Chloro-5-fluorobenzyl)-1-carbamoylmethyl-3-hydroxy-2-oxopyrrolidine-3-carboxamide]"
9,> 10,"O=C1CCc2cc(N3CC[C@@](O)(C(=O)NCc4cccc(F)c4)C3=O)ccc2N1 [B57, N-(3-Fluorobenzyl)-(R)-3-hydroxy-2-oxo-1-(2-oxo-1,2,3,4-tetrahydroquinolin-6-yl)-pyrrolidine-3-carboxamide]"
10,> 10,"O=C(NCc1cc(F)cc(Cl)c1)C1(O)C(=O)N(c2ccccc2)CC12COC2 (stereo not drawn) [A113, N-(3-Chloro-5-fluorobenzyl)-8-hydroxy-7-oxo-6-phenyl-2-oxa-6-azaspiro[3.4]octane-8-carboxamide]"
11,0.01 to 1,"O=C1CCc2cc(N3CCC(O)(C(=O)NCc4cc(F)cc(Cl)c4)C3=O)c(F)cc2N1 (stereo not drawn) [B109, N-(3-Chloro-5-fluorobenzyl)-1-(7-fluoro-2-oxo-1,2,3,4-tetrahydroquinolin-6-yl)-3-hydroxy-2-oxopyrrolidine-3-carboxamide]"
12,0.01 to 1,"O=C(NCc1cc(F)cc(Cl)c1)[C@@]1(O)CCN(c2ccc(C(F)(F)F)cc2F)C1=O [B65, N-(3-Chloro-5-fluorobenzyl)-(S)-1-(2-fluoro-4-trifluoromethyl-phenyl)-3-hydroxy-2-oxo-pyrrolidine-3-carboxamide]"
13,0.01 to 1,"O=C(NCCc1cc(F)cc(F)c1)[C@@]1(O)CCN(c2ccc3[nH]ccc3c2)C1=O [B110, N-[2-(3,5-Difluorophenyl)ethyl]-(S)-3-hydroxy-1-(1H-indol-5-yl)-2-oxopyrrolidine-3-carboxamide]"
14,0.01 to 1,"CC(=O)Nc1ccc(N2CCC(O)(C(=O)NCc3cc(F)cc(F)c3)C2=O)cn1 (stereo not drawn) [A176, N-(3,5-Difluorobenzyl)-1-(6-acetylaminopyridin-3-yl)-3-hydroxy-2-oxopyrrolidine-3-carboxamide]"
15,0.01 to 1,"O=C(NCc1cccc(F)c1)[C@@]1(O)CCCN(CC2CCCCC2)C1=O [A256, N-(3-fluorobenzyl)-(S)-1-cyclohexylmethyl-3-hydroxy-2-oxopiperidine-3-carboxamide]"
16,1 to 10,"O=C(NCc1ccc(F)cc1)[C@@]1(O)CCCN(Cc2cccc(F)c2F)C1=O [A255, N-(4-Fluorobenzyl)-(S)-1-(2,3-difluorobenzyl)-3-hydroxy-2-oxo-piperidine-3-carboxamide]"
17,1 to 10,"NC(=O)c1cc(C(N)=O)cc(N2CCC(O)(C(=O)NCc3cc(F)cc(Cl)c3)C2=O)c1 (stereo not drawn) [A130, 5-[3-(3-Chloro-5-fluorobenzylcarbamoyl)-3-hydroxy-2-oxopyrrolidin-1-yl]-isophthalamide]"
18,0.01 to 1,"O=C(NCc1cc(F)cc(Cl)c1)C1(O)CCN(Cc2ccccc2)C1=O (stereo not drawn) [A136, N-(3-Chloro-5-fluorobenzyl)-1-benzyl-3-hydroxy-2-oxo-pyrrolidine-3-carboxamide]"
19,> 10,"CC(C)(C)OC(=O)N1CCC(O)(C(=O)OCc2ccccc2)C1=O (stereo not drawn) [B51, 3-Benzyl 1-tert-butyl 3-hydroxy-2-oxopyrrolidine-1,3-dicarboxylate]"
